Measured values reported in ChEMBL document CHEMBL4808243, “Harmine-inspired design and synthesis of benzo[d]imidazo[2,1-b]thiazole derivatives bearing 1,3,4-oxadiazole moiety as potential tumor suppressors” (Bioorg Med Chem, 2021).
Active and inactive are the calls of the source. The rule behind the calls is not given here.

Legend:
Assay type in all cases: functional, cell-based
NCI-H2228 = experiment: Antiproliferative activity against human EML4-ALK positive H2228 cells assessed as inhibition of cell growth incubated for 72 hrs by MTT assay; conditions: NCI-H2228, 72 h
A549 [1] = experiment: Antiproliferative activity against human A549 cells assessed as inhibition of cell growth incubated for 72 hrs by MTT assay; conditions: A549, 72 h
A549 [2] = experiment: Inhibition of epithelial-mesenchymal transition in human A549 cells assessed as suppression of Twist 1 expression measured after 24 hrs by Western blot analysis; conditions: dose 0.5-2 µM
A549 [3] = experiment: Induction of apoptosis in human A549 cells by flow cytometry analysis
A549 [4] = experiment: Inhibition of epithelial-mesenchymal transition in human A549 cells assessed as suppression of Twist 1 expression at 17 uM measured after 24 hrs by Western blot analysis

For Cc1nc2sc3ccccc3n2c1-c1nnc(CN2CC(O)C2)o1, the IC50 (NCI-H2228) was 27.2 µM and the IC50 (A549 [1]) was 12.3 µM.

In the case of Cc1nc2sc3ccccc3n2c1-c1nnc(CNC2CCCC2)o1, the IC50 (NCI-H2228) is reported as 17.4 µM and the IC50 (A549 [1]) is reported as 3.92 µM.

With Cc1nc2sc3ccccc3n2c1-c1nnc(CN2CCCC2)o1 the IC50 (NCI-H2228) was 26.5 µM and the IC50 (A549 [1]) was 7.7 µM.

CCN(CC)Cc1nnc(-c2c(C)nc3sc4ccccc4n23)o1 showed an IC50 (NCI-H2228) of 21.6 µM and an IC50 (A549 [1]) of 10.7 µM.

Work on Cc1nc2sc3ccccc3n2c1-c1nnc(CCN2CCCC2)o1 yielded an IC50 (NCI-H2228) of 23.5 µM and an IC50 (A549 [1]) of 12.2 µM.

In the case of Cc1nc2sc3ccccc3n2c1-c1nnc(CCN2CCCCC2)o1, the Activity (A549 [2]) is reported as “Dose-Dependent Effect”, the IC50 (NCI-H2228) is reported as 9.8 µM and the IC50 (A549 [1]) is reported as 2.03 µM. The Activity (A549 [3]) was “inactive”.

Cc1nc2sc3ccccc3n2c1-c1nnc(CCN2CCC(C)CC2)o1 showed an IC50 (NCI-H2228) of 13.4 µM and an IC50 (A549 [1]) of 2.38 µM.

Cc1nc2sc3ccccc3n2c1-c1nnc(CN2CCN(CCO)CC2)o1 gave an IC50 (NCI-H2228) of 14.9 µM and an IC50 (A549 [1]) of 4.41 µM.

Work on Cc1nc2sc3ccccc3n2c1-c1nnc(CN2CCC(C)CC2)o1 yielded an IC50 (NCI-H2228) of 23.1 µM and an IC50 (A549 [1]) of 12.8 µM.

Compound Cc1nc2sc3ccccc3n2c1-c1nnc(CCN2CC(O)C2)o1 has an IC50 (NCI-H2228) of 22.5 µM and an IC50 (A549 [1]) of 9.63 µM.

Work on CCCN1CCN(Cc2nnc(-c3c(C)nc4sc5ccccc5n34)o2)CC1 yielded an IC50 (NCI-H2228) of 21.8 µM and an IC50 (A549 [1]) of 13.7 µM.

For CCCN1CCN(CCc2nnc(-c3c(C)nc4sc5ccccc5n34)o2)CC1, the IC50 (NCI-H2228) was 22.2 µM and the IC50 (A549 [1]) was 11.1 µM.

Cc1nc2sc3ccccc3n2c1-c1nnc(CCNCCO)o1 showed an IC50 (NCI-H2228) of 16.5 µM and an IC50 (A549 [1]) of 10.7 µM.

With Cc1nc2sc3ccccc3n2c1-c1nnc(CN2CCC(O)CC2)o1 the IC50 (NCI-H2228) was 12.2 µM and the IC50 (A549 [1]) was 15 µM.

With Cc1nc2sc3ccccc3n2c1-c1nnc(CN2CCCCC2)o1 the IC50 (NCI-H2228) was 19.2 µM and the IC50 (A549 [1]) was 15.1 µM.

In the case of Cc1nc2sc3ccccc3n2c1-c1nnc(CCN(C)C)o1, the IC50 (NCI-H2228) is reported as 19 µM and the IC50 (A549 [1]) is reported as 11.9 µM.

Compound CCN(CC)CCc1nnc(-c2c(C)nc3sc4ccccc4n23)o1 has an IC50 (NCI-H2228) of 23.9 µM and an IC50 (A549 [1]) of 9.55 µM.

For Cc1nc2sc3ccccc3n2c1-c1nnc(CNCCO)o1, the IC50 (NCI-H2228) was 17.8 µM and the IC50 (A549 [1]) was 8.46 µM.

Cc1nc2sc3ccccc3n2c1-c1nnc(CCNC2CCCC2)o1 was tested, and the IC50 (NCI-H2228) was 18.6 µM and the IC50 (A549 [1]) was 15 µM.

With COc1ccc2c(c1)[nH]c1c(C)nccc12 [HARMINE] the Activity (A549 [4]) was “Active”, the IC50 (NCI-H2228) was 31.1 µM and the IC50 (A549 [1]) was 17.1 µM.

Cc1nc2sc3ccccc3n2c1-c1nnc(CN(C)C)o1 gave an IC50 (NCI-H2228) of 15.3 µM and an IC50 (A549 [1]) of 9.26 µM.

Compound Cc1nc2sc3ccccc3n2c1-c1nnc(CCN2CCC(O)CC2)o1 has an IC50 (NCI-H2228) of 15.4 µM and an IC50 (A549 [1]) of 7.66 µM.

Cc1nc2sc3ccccc3n2c1-c1nnc(CCN2CCN(CCO)CC2)o1 gave an IC50 (NCI-H2228) of 14 µM and an IC50 (A549 [1]) of 6.95 µM.
